Assay results reported in US10633348B2, “Methods to treat lymphoplasmacytic lymphoma” (Dana-Farber Cancer Institute, Inc., priority 2013, dated 2020).
Where two headings read alike, the source gives them in different places.

Tests used:
Type in all cases: cell-based
[1] = tested on: MAP3K1
[2] = tested on: LATS2
[3] = tested on: ROCK1, ROCK2; experiment: KiNativ kinase profiling in A375 cells; details: Lys2, SEQ ID NO 163, 1.0 μM
[4] = tested on: PIP4K2B
[5] = tested on: CAMK2D
[6] = tested on: LKB1
[7] = tested on: MPSK1
[8] = tested on: MARK3
[9] = tested on: RSKL1
[10] = tested on: CK1a
[11] = tested on: NEK3
[12] = tested on: MAP2K7
[13] = tested on: STK33
[14] = tested on: DGKQ
[15] = tested on: AurA
[16] = tested on: BTK
[17] = tested on: PRP4
[18] = tested on: RSK1 domain1
[19] = tested on: HPK1
[20] = tested on: ZAP70
[21] = tested on: p70S6Kb
[22] = tested on: SYK
[23] = tested on: MST1
[24] = tested on: PIK3CB
[25] = tested on: MAP2K5
[26] = tested on: MAST1, MAST2; experiment: KiNativ kinase profiling in A375 cells; details: Lys2, SEQ ID NO 96, 1.0 μM
[27] = tested on: MELK
[28] = tested on: PYK2
[29] = tested on: CK1g2
[30] = tested on: PIP4K2A
[31] = tested on: eEF2K
[32] = tested on: MST3
[33] = tested on: MLK3
[34] = tested on: ERK1
[35] = tested on: IKKb
[36] = tested on: MAP2K3
[37] = tested on: ATR
[38] = tested on: CaMK1a
[39] = tested on: TAO2
[40] = tested on: MARK4
[41] = tested on: CASK
[42] = tested on: FGR
[43] = tested on: PHKG2
[44] = tested on: LATS1
[45] = tested on: 260 kinases in A375 cells; details: 1.0 μM

Structure (SMILES): CCN1CCN(Cc2ccc(NC(=O)c3ccc(C)c(Oc4cc(N)ncn4)c3)cc2C(F)(F)F)CC1 [(A-4), 3-((6-aminopyrimidin-4-yl)oxy)-N-(4-((4-ethylpiperazin-1-yl)methyl)-3-(trifluoromethyl)phenyl)-4-methylbenzamide]
- inhibition of kinase labeling [1]: 26.9%
- inhibition of kinase labeling [2]: −1.9%
- inhibition of kinase labeling [3]: 22.0%
- inhibition of kinase labeling [4]: −44.7%
- inhibition of kinase labeling [5]: −8.1%
- inhibition of kinase labeling [6]: −6.0%
- inhibition of kinase labeling [7]: 16.1%
- inhibition of kinase labeling [8]: −26.1%
- inhibition of kinase labeling [9]: 31.5%
- inhibition of kinase labeling [10]: −0.6%
- inhibition of kinase labeling [11]: 13.1%
- inhibition of kinase labeling [12]: −38.2%
- inhibition of kinase labeling [13]: 12.9%
- inhibition of kinase labeling [14]: 11.0%
- inhibition of kinase labeling [15]: −16.0%
- inhibition of kinase labeling [16]: −18.8%
- inhibition of kinase labeling [17]: −20.1%
- inhibition of kinase labeling [18]: −20.9%
- inhibition of kinase labeling [19]: 68.1%
- inhibition of kinase labeling [20]: 49.2%
- inhibition of kinase labeling [21]: 8.2%
- inhibition of kinase labeling [22]: 17.4%
- inhibition of kinase labeling [23]: −4.7%
- inhibition of kinase labeling [24]: 27.8%
- inhibition of kinase labeling [25]: 20.5%
- inhibition of kinase labeling [26]: 35.6%
- inhibition of kinase labeling [27]: −19.6%
- inhibition of kinase labeling [28]: 10.9%
- inhibition of kinase labeling [29]: −9.1%
- inhibition of kinase labeling [30]: −26.7%
- inhibition of kinase labeling [31]: −30.5%
- inhibition of kinase labeling [32]: −3.7%
- inhibition of kinase labeling [33]: 20.7%
- inhibition of kinase labeling [34]: −9.0%
- inhibition of kinase labeling [35]: −12.6%
- inhibition of kinase labeling [36]: −1.0%
- inhibition of kinase labeling [37]: 23.0%
- inhibition of kinase labeling [38]: 12.4%
- inhibition of kinase labeling [39]: 86.0%
- inhibition of kinase labeling [40]: 2.9%
- inhibition of kinase labeling [41]: −28.1%
- inhibition of kinase labeling [42]: 31.9%
- inhibition of kinase labeling [43]: 15.2%
- inhibition of kinase labeling [44]: 5.4%

Structure (SMILES): CCN1CCN(Cc2ccc(NC(=O)c3ccc(C)c(Oc4ccnc(Nc5cnn(C)c5)n4)c3)cc2C(F)(F)F)CC1 [(A-14), N-(4-((4-ethylpiperazin-1-yl)methyl)-3-(trifluoromethyl)phenyl)-4-methyl-3-((2-((1-methyl-1H-pyrazol-4-yl)amino)pyrimidin-4-yl)oxy)benzamide]
- KiNativ inhibition ([45]; AKT2, AKT3, ATP Loop, SEQ ID NO 204): −19.7%
- KiNativ inhibition ([45]; AMPKa1, AMPKa2, Lys2, SEQ ID NO 205): −17.5%
- KiNativ inhibition ([45]; AurA, AurB, AurC, ATP Loop, SEQ ID NO 211): −2.4%
- KiNativ inhibition ([45]; CDK11, CDK8, Lys2, SEQ ID NO 224): 49.2%
- KiNativ inhibition ([45]; CK1g1, CK1g2, CK1g3, ATP Loop, SEQ ID NO 235): 1.3%
- KiNativ inhibition ([45]; CK1d, CK1e, Lys2, SEQ ID NO 234): −9.3%
- KiNativ inhibition ([45]; JNK1, JNK2, JNK3, Lys2, SEQ ID NO 276): 31.5%
- KiNativ inhibition ([45]; KSR1, KSR2, Activation Loop, SEQ ID NO 280): 1.4%
- KiNativ inhibition ([45]; MAP2K1, MAP2K2, Lys1, SEQ ID NO 289): 9.4%
- KiNativ inhibition ([45]; MAP2K1, MAP2K2, Lys2, SEQ ID NO 290): 2.2%
- KiNativ inhibition ([45]; MAP3K2, MAP3K3, Lys2, SEQ ID NO 299): 8.4%
- KiNativ inhibition ([45]; MARK2, MARK3, Lys2, SEQ ID NO 304): −15.6%
- KiNativ inhibition ([45]; MARK3, MARK4, Lys1, SEQ ID NO 306): −7.5%
- KiNativ inhibition ([45]; MAST1, MAST2, Lys2, SEQ ID NO 308): −24.8%
- KiNativ inhibition ([45]; MER, TYRO3, Activation Loop, SEQ ID NO 313): 21.2%
- KiNativ inhibition ([45]; MST4, YSK1, Lys2, SEQ ID NO 325): −2.4%
- KiNativ inhibition ([45]; MYO3A, MYO3B, Lys2, SEQ ID NO 326): 22.9%
- KiNativ inhibition ([45]; NEK6, NEK7, Lys2, SEQ ID NO 333): −1.8%
- KiNativ inhibition ([45]; PCTAIRE2, PCTAIRE3, Lys1, SEQ ID NO 346): 72.9%
- KiNativ inhibition ([45]; PI4KA, PI4KAP2, ATP, SEQ ID NO 353): 2.1%
- KiNativ inhibition ([45]; PKCa, PKCb, Lys2, SEQ ID NO 364): −86.4%
- KiNativ inhibition ([45]; ROCK1, ROCK2, Lys2, SEQ ID NO 377): −0.2%
- KiNativ inhibition ([45]; RSK1 domain1, RSK2 domain1, RSK3 domain1, Lys2, SEQ ID NO 379): −25.1%
- KiNativ inhibition ([45]; SRPK1, SRPK2, Lys1, SEQ ID NO 391): −38.7%
- KiNativ inhibition ([45]; TAO1, TAO3, Lys2, SEQ ID NO 396): 87.1%
- KiNativ inhibition ([45]; Wnk1, Wnk2, Wnk3, Lys2, SEQ ID NO 406): −1.1%
- KiNativ inhibition ([45]; Wnk1, Wnk2, ATP Loop, SEQ ID NO 405): 11.2%
- KiNativ inhibition ([45]; ZC1/HGK, ZC2/TNIK, ZC3/MINK, Lys2, SEQ ID NO 410): 57.5%
- KiNativ inhibition ([45]; p38d, p38g, Lys2, SEQ ID NO 341): 51.5%
